Measured values published in patent publication US8921362B2, “6,7-dialkoxy quinazoline derivatives and methods of treating drug resistant and other tumors” (Natco Pharma Limited, priority 2008, dated 2014).

Columns and labels:
Test in all cases: KinomeScan
Format in all cases: binding
Settings in all cases: read-out: % Ctrl @ 10000 nM
[1] = molecular target: T1, RPS6KA6(Kin.Dom.-1-N-terminal) (Homo sapiens, UniProt Q9UK32)
T1 construct: RPS6KA6(Kin.Dom.-1-N-terminal); host or cells: E. coli host derived from BL21, T7 phage display
Method in brief: (§1)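 An active-site competition format was used, with T7 phage displaying the kinase and affinity beads carrying immobilized ligand. Blocking buffer contained SeaBlock, 1% BSA, 0.05% Tween 20 and 1 mM DTT.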

JNK1 = molecular target: T2, JNK1 (Homo sapiens, UniProt P45983)
T2 construct: host or cells: T7 phage grown in E. coli host derived from BL21
Method in brief: as §1

SRPK1 = molecular target: T3, SRPK1 (Homo sapiens, UniProt Q96SB4)
T3 construct: host or cells: T7 phage grown in E. coli (BL21-derived)
Method in brief: as §1

[2] = molecular target: T4, RPS6KA2(Kin.Dom.-1-N-terminal) (Homo sapiens, UniProt Q15349)
T4 construct: RPS6KA2(Kin.Dom.-1-N-terminal); host or cells: E. coli host derived from BL21, T7 phage display
Method in brief: as §1

MARK3 = molecular target: T5, MARK3 (Homo sapiens, UniProt P27448)
T5 construct: host or cells: E. coli host derived from the BL21 strain, infected with T7 phage
Method in brief: as §1

HIPK1 = molecular target: T6, HIPK1 (Homo sapiens, UniProt Q86Z02)
T6 construct: host or cells: T7 phage in E. coli host derived from BL21
Method in brief: as §1

MEK4 = molecular target: T7, MEK4 (Homo sapiens, UniProt P45985)
T7 construct: host or cells: E. coli host derived from the BL21 strain, infected with T7 phage
Method in brief: as §1

[3] = molecular target: T8, JAK2(JH1domain- catalytic) (Homo sapiens, UniProt O60674)
T8 construct: JAK2(JH1domain- catalytic); host or cells: T7 phage grown in E. coli host derived from BL21
Method in brief: as §1

EPHA2 = molecular target: T9, EPHA2 (Homo sapiens, UniProt P29317)
T9 construct: purchased Ambit Biosciences Corp; host or cells: T7 phage in E. coli host derived from BL21
Method in brief: as §1

TNK2 = molecular target: T10, TNK2 (Homo sapiens, UniProt Q07912)
T10 construct: host or cells: E. coli host derived from BL21, T7 phage
Method in brief: as §1

p38-beta = molecular target: T11, p38-beta (Homo sapiens, UniProt Q15759)
T11 construct: host or cells: E. coli host derived from BL21, infected with T7 phage
Method in brief: as §1

EGFR(L861Q) = molecular target: T12, EGFR(L861Q) (Homo sapiens, UniProt P00533, L861Q)
T12 construct: purchased Ambit Biosciences Corp; host or cells: T7 phage in E. coli host derived from BL21
Method in brief: as §1

FES = molecular target: T13, FES (Homo sapiens, UniProt P07332)
T13 construct: host or cells: T7 phage in E. coli host derived from BL21
Method in brief: as §1

DCAMKL1 = molecular target: T14, DCAMKL1 (Homo sapiens, UniProt O15075)
T14 construct: purchased Ambit Biosciences Corp (KinomeScan); host or cells: T7 phage in E. coli host derived from BL21
Method in brief: as §1

RIPK2 = molecular target: T15, RIPK2 (Homo sapiens, UniProt O43353)
T15 construct: host or cells: E. coli host derived from BL21, T7 phage display
Method in brief: as §1

PRKG1 = molecular target: T16, PRKG1 (Homo sapiens, UniProt Q13976)
T16 construct: host or cells: T7 phage in E. coli host derived from BL21
Method in brief: as §1

DAPK3 = molecular target: T17, DAPK3 (Homo sapiens, UniProt O43293)
T17 construct: purchased Ambit Biosciences Corp (KinomeScan); host or cells: T7 phage in E. coli host derived from BL21
Method in brief: as §1

MLK1 = molecular target: T18, MLK1 (Homo sapiens, UniProt P80192)
T18 construct: host or cells: T7 phage grown in E. coli host derived from BL21
Method in brief: as §1

[4] = molecular target: T19, EGFR(L747-E749del, A750P) (Homo sapiens, UniProt P00533, A750P/DEL747-749)
T19 construct: purchased Ambit Biosciences Corp (KinomeScan); host or cells: T7 phage in E. coli host derived from BL21
Method in brief: as §1

TESK1 = molecular target: T20, TESK1 (Homo sapiens, UniProt Q15569)
T20 construct: host or cells: T7 phage grown in E. coli (BL21-derived)
Method in brief: as §1

AURKB = molecular target: T21, AURKB (Homo sapiens, UniProt Q96GD4)
T21 construct: host or cells: E. coli host derived from BL21
Method in brief: as §1

BRSK1 = molecular target: T22, BRSK1 (Homo sapiens, UniProt Q8TDC3)
T22 construct: host or cells: E. coli host derived from BL21
Method in brief: as §1

RIOK2 = molecular target: T23, RIOK2 (Homo sapiens, UniProt Q9BVS4)
T23 construct: host or cells: E. coli host derived from BL21, T7 phage display
Method in brief: as §1

JNK2 = molecular target: T24, JNK2 (Homo sapiens, UniProt P45984)
T24 construct: host or cells: T7 phage grown in E. coli host derived from BL21
Method in brief: as §1

LIMK1 = molecular target: T25, LIMK1 (Homo sapiens, UniProt P53667)
T25 construct: host or cells: T7 phage grown in E. coli host derived from BL21
Method in brief: as §1

TNNI3K = molecular target: T26, TNNI3K (Homo sapiens, UniProt Q59H18)
T26 construct: host or cells: E. coli host derived from BL21, T7 phage
Method in brief: as §1

STK16 = molecular target: T27, STK16 (Homo sapiens, UniProt O75716)
T27 construct: host or cells: T7 phage grown in E. coli (BL21-derived)
Method in brief: as §1

IGF1R = molecular target: T28, IGF1R (Homo sapiens, UniProt P08069)
T28 construct: host or cells: T7 phage grown in E. coli host derived from BL21
Method in brief: as §1

EPHA5 = molecular target: T29, EPHA5 (Homo sapiens, UniProt P54756)
T29 construct: purchased Ambit Biosciences Corp; host or cells: T7 phage in E. coli host derived from BL21
Method in brief: as §1

NLK = molecular target: T30, NLK (Homo sapiens, UniProt Q9UBE8)
T30 construct: host or cells: E. coli host derived from BL21, infected with T7 phage
Method in brief: as §1

KIT(V559D) = molecular target: T31, KIT(V559D) (Homo sapiens, UniProt P10721, V559D)
T31 construct: host or cells: T7 phage grown in E. coli host derived from BL21
Method in brief: as §1

MST4 = molecular target: T32, MST4 (Homo sapiens, UniProt Q9P289)
T32 construct: host or cells: T7 phage grown in E. coli host derived from BL21
Method in brief: as §1

T14 sequence (O15075 whole entry): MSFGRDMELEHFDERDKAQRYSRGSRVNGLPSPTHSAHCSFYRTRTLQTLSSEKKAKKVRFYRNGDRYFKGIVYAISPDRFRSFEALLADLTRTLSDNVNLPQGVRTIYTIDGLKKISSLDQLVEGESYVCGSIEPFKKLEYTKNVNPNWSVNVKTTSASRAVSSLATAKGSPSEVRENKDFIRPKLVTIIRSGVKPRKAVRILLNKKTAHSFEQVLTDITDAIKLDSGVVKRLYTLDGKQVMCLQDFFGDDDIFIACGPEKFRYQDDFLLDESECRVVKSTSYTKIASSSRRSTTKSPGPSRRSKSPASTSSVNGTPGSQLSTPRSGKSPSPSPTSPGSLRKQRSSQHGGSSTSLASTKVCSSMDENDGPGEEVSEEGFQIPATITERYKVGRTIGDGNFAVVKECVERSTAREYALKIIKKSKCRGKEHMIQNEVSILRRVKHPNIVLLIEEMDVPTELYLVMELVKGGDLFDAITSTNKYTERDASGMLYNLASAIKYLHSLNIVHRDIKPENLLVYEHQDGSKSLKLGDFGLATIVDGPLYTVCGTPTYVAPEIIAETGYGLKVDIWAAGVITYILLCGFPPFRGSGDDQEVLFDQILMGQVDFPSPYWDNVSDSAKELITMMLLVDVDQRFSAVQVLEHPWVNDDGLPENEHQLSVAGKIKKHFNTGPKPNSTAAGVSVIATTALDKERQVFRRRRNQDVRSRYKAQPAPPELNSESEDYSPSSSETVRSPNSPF
T27 sequence (O75716 whole entry): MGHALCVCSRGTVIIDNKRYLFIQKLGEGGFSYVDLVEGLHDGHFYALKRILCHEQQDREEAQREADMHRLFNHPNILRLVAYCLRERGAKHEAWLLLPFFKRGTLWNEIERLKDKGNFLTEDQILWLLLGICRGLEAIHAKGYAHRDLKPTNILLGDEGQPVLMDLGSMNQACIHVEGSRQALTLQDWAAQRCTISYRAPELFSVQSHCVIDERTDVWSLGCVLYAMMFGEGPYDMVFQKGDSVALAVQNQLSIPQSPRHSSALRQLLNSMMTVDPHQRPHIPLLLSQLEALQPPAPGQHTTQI
T4 sequence (Q15349 59-318 limits assumed): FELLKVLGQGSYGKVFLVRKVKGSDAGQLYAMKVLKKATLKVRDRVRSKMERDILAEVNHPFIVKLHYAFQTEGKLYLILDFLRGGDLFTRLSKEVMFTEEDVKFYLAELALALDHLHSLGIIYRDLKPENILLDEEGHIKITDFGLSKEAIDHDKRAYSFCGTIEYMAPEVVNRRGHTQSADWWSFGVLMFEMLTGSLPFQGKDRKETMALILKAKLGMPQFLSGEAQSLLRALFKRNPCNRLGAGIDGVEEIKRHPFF
T20 sequence (Q15569 whole entry): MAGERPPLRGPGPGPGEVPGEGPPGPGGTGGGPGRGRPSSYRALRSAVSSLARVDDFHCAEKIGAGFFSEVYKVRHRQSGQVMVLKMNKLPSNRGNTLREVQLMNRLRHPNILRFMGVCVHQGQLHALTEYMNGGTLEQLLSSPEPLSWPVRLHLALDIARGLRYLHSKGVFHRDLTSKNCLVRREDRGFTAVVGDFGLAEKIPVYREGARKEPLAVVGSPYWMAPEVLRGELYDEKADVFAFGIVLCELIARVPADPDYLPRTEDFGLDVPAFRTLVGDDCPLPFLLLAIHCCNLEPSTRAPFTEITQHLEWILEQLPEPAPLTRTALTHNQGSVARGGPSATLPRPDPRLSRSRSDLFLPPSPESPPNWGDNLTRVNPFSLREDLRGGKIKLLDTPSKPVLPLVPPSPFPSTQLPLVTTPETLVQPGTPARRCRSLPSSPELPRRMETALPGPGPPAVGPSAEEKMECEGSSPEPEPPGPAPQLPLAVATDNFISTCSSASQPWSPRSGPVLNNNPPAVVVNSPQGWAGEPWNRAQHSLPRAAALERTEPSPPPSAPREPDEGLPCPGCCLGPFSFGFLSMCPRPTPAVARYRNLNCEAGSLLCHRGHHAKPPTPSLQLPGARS
T9 sequence (P29317 24-976): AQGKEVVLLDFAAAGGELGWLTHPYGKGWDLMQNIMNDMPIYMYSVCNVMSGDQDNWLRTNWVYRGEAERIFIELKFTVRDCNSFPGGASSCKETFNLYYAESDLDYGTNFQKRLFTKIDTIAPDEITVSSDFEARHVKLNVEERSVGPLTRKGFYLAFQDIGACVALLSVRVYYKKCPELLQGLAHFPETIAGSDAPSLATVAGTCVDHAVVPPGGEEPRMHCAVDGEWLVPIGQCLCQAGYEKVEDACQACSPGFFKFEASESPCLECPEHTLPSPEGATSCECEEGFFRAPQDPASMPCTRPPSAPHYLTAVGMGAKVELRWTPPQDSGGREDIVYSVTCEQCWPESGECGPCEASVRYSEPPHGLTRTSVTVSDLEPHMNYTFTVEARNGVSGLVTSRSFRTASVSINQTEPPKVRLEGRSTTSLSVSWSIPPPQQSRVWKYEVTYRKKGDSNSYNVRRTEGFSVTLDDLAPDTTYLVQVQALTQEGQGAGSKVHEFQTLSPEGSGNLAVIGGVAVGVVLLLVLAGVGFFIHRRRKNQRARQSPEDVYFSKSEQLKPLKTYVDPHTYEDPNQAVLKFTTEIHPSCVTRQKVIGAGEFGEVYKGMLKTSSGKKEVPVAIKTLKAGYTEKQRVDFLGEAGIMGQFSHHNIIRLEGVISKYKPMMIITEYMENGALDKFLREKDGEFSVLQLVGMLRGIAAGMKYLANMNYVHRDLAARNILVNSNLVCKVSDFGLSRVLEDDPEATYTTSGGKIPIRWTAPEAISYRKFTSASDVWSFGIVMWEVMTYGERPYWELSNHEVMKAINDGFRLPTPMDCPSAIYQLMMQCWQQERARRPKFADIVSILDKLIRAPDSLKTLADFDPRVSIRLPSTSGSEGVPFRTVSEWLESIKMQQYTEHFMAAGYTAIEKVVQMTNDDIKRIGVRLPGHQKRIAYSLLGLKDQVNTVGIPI
T15 sequence (O43353 whole entry): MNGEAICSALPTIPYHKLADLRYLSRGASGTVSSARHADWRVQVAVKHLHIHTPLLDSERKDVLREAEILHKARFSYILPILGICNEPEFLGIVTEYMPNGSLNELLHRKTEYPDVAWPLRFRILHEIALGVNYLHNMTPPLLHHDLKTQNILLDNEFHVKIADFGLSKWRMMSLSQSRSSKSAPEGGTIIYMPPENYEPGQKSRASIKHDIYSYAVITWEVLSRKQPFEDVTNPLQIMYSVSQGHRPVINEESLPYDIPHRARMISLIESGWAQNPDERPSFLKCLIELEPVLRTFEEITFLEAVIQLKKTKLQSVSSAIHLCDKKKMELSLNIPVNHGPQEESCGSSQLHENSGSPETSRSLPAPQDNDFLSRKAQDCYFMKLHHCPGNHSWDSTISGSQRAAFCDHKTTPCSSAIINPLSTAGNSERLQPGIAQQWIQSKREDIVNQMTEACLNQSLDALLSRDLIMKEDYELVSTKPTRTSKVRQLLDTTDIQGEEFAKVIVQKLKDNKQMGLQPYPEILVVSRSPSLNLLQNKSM
T21 sequence (Q96GD4 whole entry): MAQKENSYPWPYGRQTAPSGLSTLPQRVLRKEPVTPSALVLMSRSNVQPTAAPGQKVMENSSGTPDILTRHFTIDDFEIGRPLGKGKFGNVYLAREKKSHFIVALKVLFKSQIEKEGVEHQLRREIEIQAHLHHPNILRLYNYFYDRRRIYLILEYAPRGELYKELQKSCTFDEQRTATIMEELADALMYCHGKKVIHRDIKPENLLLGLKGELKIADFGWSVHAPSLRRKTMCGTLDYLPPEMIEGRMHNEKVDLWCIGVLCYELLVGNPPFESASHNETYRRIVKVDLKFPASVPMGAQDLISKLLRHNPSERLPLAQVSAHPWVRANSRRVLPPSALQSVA
T13 sequence (P07332 whole entry): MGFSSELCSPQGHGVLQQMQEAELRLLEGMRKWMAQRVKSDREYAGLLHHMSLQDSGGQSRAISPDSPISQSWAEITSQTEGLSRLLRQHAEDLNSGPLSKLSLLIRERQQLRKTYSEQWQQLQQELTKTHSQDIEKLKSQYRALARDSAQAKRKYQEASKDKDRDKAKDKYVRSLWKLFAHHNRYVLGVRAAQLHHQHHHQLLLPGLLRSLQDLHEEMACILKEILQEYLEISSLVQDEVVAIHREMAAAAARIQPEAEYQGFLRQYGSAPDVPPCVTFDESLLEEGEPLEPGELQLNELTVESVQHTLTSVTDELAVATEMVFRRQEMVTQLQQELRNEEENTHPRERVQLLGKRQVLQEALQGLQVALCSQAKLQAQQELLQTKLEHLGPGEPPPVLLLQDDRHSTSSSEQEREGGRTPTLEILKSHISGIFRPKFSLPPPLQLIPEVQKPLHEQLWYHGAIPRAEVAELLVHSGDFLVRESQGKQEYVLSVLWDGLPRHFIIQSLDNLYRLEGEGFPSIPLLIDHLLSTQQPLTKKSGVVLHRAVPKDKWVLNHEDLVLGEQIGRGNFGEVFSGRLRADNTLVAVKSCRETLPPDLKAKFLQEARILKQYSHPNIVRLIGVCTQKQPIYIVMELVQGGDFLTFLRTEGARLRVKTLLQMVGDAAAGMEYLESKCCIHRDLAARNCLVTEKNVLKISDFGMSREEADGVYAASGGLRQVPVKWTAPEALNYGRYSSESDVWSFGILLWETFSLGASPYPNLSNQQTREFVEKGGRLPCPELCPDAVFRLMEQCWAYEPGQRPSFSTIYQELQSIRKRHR
T11 sequence (Q15759 whole entry): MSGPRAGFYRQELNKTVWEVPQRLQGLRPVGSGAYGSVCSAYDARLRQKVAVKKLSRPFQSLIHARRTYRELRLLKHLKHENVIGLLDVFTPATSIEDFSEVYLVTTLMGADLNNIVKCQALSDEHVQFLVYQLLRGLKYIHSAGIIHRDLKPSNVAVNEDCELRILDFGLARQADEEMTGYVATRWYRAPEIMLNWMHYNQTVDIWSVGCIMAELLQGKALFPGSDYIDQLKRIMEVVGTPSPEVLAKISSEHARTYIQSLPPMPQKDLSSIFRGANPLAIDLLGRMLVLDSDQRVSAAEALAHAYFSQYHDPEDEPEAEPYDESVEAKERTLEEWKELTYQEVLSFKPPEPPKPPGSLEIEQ

## C#Cc1cccc(Nc2ncnc3cc(OC)c(OCCCN4CCOCC4)cc23)c1 [NRC-2694, N-(3-ethynylphenyl)-7-methoxy-6-[3-(4-morpholinyl)propoxy]-4-quinazolinamine]
[1]
  remaining binding at 10 µM: 94%
JNK1
  remaining binding at 10 µM: 99%
SRPK1
  remaining binding at 10 µM: 40%
[2]
  remaining binding at 10 µM: 70%
MARK3
  remaining binding at 10 µM: 62%
HIPK1
  remaining binding at 10 µM: 70%
MEK4
  remaining binding at 10 µM: 92%
[3]
  remaining binding at 10 µM: 38%
EPHA2
  remaining binding at 10 µM: 100%
TNK2
  remaining binding at 10 µM: 37%
p38-beta
  remaining binding at 10 µM: 100%
EGFR(L861Q)
  remaining binding at 10 µM: 0%
FES
  remaining binding at 10 µM: 72%
DCAMKL1
  remaining binding at 10 µM: 92%
RIPK2
  remaining binding at 10 µM: 2.4%
PRKG1
  remaining binding at 10 µM: 75%
DAPK3
  remaining binding at 10 µM: 34%
MLK1
  remaining binding at 10 µM: 100%
[4]
  remaining binding at 10 µM: 0%
TESK1
  remaining binding at 10 µM: 83%
AURKB
  remaining binding at 10 µM: 56%
BRSK1
  remaining binding at 10 µM: 53%
RIOK2
  remaining binding at 10 µM: 43%
JNK2
  remaining binding at 10 µM: 95%
LIMK1
  remaining binding at 10 µM: 62%
TNNI3K
  remaining binding at 10 µM: 7.6%
STK16
  remaining binding at 10 µM: 100%
IGF1R
  remaining binding at 10 µM: 74%
EPHA5
  remaining binding at 10 µM: 86%
NLK
  remaining binding at 10 µM: 55%
KIT(V559D)
  remaining binding at 10 µM: 17%
MST4
  remaining binding at 10 µM: 29%
